Counter-ions that a name gives are not always drawn.
Experiments:
[1] = prodrug; WO 2007/023141; cited from earlier work
dopamine D2 receptor = target: T1, dopamine D2 receptor (Rattus norvegicus, UniProt P61169); settings: against inhibitory effect of quinpirole on K+-stimulated [3H]dopamine release, rat striatal slices; cited from earlier work
T1 construct: from rat striatal slices; from tissue; host or cells: rat striatal slices

[2] = test system: MPTP-lesioned common marmosets; test: locomotor activity in MPTP-lesioned common marmosets; assay type: in vivo, Callithrix jacchus; settings: for hyperactivity (3 times normal activity in naive marmosets): alone or combined
Experimental: All experimental work was carried out in accordance with the Animals (Scientific Procedures Act) 1986, project license nr PPL 70/4986. Administration of MPTP: […] Research Biochemical International, UK) was dissolved in 0.9% sterile saline solution and administered by subcutaneous (sc) injection (Pearce, et al., De Novo Administration of Ropinirole and Bromocriptine Induces Less Dyskinesia than L-DOPA in the MPTP-treated Common Marmoset, Mov Dis, Mar, 13(2), 234-41, (1998)). To induce the full lesion, MPTP (2.0 mg/kg, sc) was administered once daily for 5 consecutive days. During MPTP-treatment and for the following six to eight weeks, animals were hand fed on a marmoset jelly diet until they had recovered sufficiently to feed themselves and their body weights had stabilised. All animals were determined responsive to L-DOPA administration prior to use. Testing commenced only when animals had recovered from the acute effects of MPTP treatment. In this study this was 70 days after commencement for MPTP treatment. Drugs: […] Doses are expressed as mg/kg free base. L-DOPA methyl ester (Sigma, UK) was dissolved in 10% sucrose in given in a volume of 2 ml/kg and administered by oral gavage. Carbidopa (Merck Sharp and Dohme, UK) was suspended in 10% sucrose in given in a volume of 2 ml/kg and administered directly into the mouth of the animal. Domperidone (Sigma, UK) was suspended in 10% sucrose in given in a volume of 2 ml/kg and administered directly into the mouth of the animal. […] Doses of L-DOPA were chosen to reflect a moderate and high dose of L-DOPA (7.5 and 12.5 mg/kg, po respectively). Procedure: […] A modified latin square design was employed with one week wash-out periods between treatments. Animals were assessed for locomotor activity and disability as described below. Assessment of locomotor activity: […] Each cage was equipped with 8 horizontally orientated infrared photocell emitters and their corresponding detectors arranged so as to permit maximum assessment of movement. […] Analysis and Statistics: […]

[3] = test system: MPTP-lesioned common marmosets; test: motor disability rating in MPTP-treated common marmosets; assay type: in vivo, Callithrix jacchus
Experimental: All experimental work was carried out in accordance with the Animals (Scientific Procedures Act) 1986, project license nr PPL 70/4986. Administration of MPTP: […] Research Biochemical International, UK) was dissolved in 0.9% sterile saline solution and administered by subcutaneous (sc) injection (Pearce, et al., De Novo Administration of Ropinirole and Bromocriptine Induces Less Dyskinesia than L-DOPA in the MPTP-treated Common Marmoset, Mov Dis, Mar, 13(2), 234-41, (1998)). To induce the full lesion, MPTP (2.0 mg/kg, sc) was administered once daily for 5 consecutive days. During MPTP-treatment and for the following six to eight weeks, animals were hand fed on a marmoset jelly diet until they had recovered sufficiently to feed themselves and their body weights had stabilised. All animals were determined responsive to L-DOPA administration prior to use. Testing commenced only when animals had recovered from the acute effects of MPTP treatment. In this study this was 70 days after commencement for MPTP treatment. Drugs: […] Doses are expressed as mg/kg free base. L-DOPA methyl ester (Sigma, UK) was dissolved in 10% sucrose in given in a volume of 2 ml/kg and administered by oral gavage. Carbidopa (Merck Sharp and Dohme, UK) was suspended in 10% sucrose in given in a volume of 2 ml/kg and administered directly into the mouth of the animal. Domperidone (Sigma, UK) was suspended in 10% sucrose in given in a volume of 2 ml/kg and administered directly into the mouth of the animal. […] Doses of L-DOPA were chosen to reflect a moderate and high dose of L-DOPA (7.5 and 12.5 mg/kg, po respectively). Procedure: […] A modified latin square design was employed with one week wash-out periods between treatments. Animals were assessed for locomotor activity and disability as described below. Rating of disability: The animals were monitored through a one-way mirror by experienced observers, blinded to treatment, and rated for the degree of motor dysfunction. […] Analysis and Statistics: […]

[4] = target: T2, cloned human dopamine D2,L receptors (Homo sapiens, UniProt P14416); settings: cited from earlier work
T2 construct: expressed in transfected cells

[5] = target: T3, human recombinant dopamine D3 receptors (Homo sapiens, UniProt P35462); settings: cited from earlier work
T3 construct: expressed in transfected cells

[6] = target: T4, cloned human 5-HT1A receptors (Homo sapiens, UniProt P08908); settings: forskolin induced cAMP accumulation; cited from earlier work
T4 construct: expressed in transfected cells
T4 sequence (P08908 1-422): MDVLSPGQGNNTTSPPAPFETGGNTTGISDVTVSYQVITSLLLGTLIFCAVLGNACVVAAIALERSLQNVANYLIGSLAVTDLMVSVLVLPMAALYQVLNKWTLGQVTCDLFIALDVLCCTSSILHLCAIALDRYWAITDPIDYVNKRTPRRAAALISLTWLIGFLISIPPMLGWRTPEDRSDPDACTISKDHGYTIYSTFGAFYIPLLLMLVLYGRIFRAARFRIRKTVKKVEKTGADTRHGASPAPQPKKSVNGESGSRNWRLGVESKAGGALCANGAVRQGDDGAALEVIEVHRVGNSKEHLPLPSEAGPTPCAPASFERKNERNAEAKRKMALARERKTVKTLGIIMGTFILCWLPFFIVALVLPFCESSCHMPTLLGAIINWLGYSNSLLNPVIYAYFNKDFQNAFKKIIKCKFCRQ

dopamine D2/3 receptor = settings: rat striatal slices; cited from earlier work
[7] = test system: MPTP-lesioned common marmosets; settings: po; previous study; cited from earlier work
[8] = SLV308 0.26 mg/kg po, L-DOPA 7.5 and 12.5 mg/kg po
[9] = L-DOPA 7.5 and 12.5 mg/kg po, SLV308 0.26 mg/kg po

T3 sequence (P35462 whole entry): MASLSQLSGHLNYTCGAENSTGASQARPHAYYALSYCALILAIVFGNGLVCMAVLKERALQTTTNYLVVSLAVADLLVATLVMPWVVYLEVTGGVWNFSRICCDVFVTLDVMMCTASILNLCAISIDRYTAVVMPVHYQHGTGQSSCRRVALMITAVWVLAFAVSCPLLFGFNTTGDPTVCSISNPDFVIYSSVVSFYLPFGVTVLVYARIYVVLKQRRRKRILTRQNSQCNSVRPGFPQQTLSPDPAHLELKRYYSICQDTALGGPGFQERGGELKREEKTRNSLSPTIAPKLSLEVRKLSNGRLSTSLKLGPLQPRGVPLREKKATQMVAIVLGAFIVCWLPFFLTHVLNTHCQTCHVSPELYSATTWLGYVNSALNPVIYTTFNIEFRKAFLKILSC
T2 sequence (P14416 whole entry): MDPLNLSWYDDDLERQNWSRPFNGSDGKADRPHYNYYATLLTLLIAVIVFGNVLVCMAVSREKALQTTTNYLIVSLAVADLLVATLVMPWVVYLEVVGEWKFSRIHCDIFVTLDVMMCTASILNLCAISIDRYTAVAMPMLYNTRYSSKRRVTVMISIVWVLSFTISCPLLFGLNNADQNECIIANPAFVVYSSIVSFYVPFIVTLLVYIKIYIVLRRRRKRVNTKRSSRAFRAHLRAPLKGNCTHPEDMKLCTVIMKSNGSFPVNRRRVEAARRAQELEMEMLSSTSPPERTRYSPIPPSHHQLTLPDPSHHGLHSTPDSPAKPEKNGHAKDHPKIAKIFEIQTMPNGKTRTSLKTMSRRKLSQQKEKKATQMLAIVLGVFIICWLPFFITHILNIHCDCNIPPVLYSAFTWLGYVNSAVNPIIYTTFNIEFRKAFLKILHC
T1 sequence (P61169 whole entry): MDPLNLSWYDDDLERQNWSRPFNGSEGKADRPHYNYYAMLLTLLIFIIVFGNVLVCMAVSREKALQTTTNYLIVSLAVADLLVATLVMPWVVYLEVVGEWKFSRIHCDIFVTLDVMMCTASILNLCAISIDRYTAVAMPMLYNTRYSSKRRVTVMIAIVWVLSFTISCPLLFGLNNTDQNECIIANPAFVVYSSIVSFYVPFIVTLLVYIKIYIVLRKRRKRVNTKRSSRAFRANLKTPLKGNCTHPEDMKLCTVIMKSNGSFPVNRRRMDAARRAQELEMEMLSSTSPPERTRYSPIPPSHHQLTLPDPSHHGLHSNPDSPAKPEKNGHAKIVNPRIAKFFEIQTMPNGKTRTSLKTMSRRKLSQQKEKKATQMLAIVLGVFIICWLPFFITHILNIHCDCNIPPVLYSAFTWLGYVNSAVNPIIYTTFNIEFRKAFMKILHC

Structure (SMILES): C[N+]1([O-])CCN(c2cccc3[nH]c(=O)oc23)CC1 [N-oxide of SLV308]
- conversion to SLV308 in vivo [1]: rapidly converted to SLV308

Structure (SMILES): CCN(CC)C(=O)N[C@H]1C[C@@H]2c3cccc4[nH]cc(c34)C[C@H]2N(C)C1 [terguride, reference compound]
- pA2 (dopamine D2 receptor): 10.3

Structure (SMILES): CN1CCN(c2cccc3[nH]c(=O)oc23)CC1 [SLV308, 7-[4-methyl-1-piperazinyl]-2(3H)-benzoxazolone mono hydrochloride]
- time of peak locomotor activity after treatment ([2]; SLV308 0.26 mg/kg po): 180 min
- time to increase of locomotor activity after administration ([2]; SLV308 0.26 mg/kg po): ≤ 30 min
- hyperactivity (3 times normal activity in naive marmosets) [2, 8]: hyperactivity was not observed
- duration of locomotor activity ([2]; SLV308 0.26 mg/kg po, whole observation period): ≥ 7 h
- MPTP-induced akinesia and disability [3, 9]: reverse
- onset of reversal of disability [3, 9]: reduced disability scores immediately after administration
- median duration of activity (reversal of disability) ([3]; SLV308 0.26 mg/kg po alone): 390 min
- total disability scores over the 7 hours after administration ([3]; SLV308 0.26 mg/kg po alone or in combination with L-DOPA 7.5 or 12.5 mg/kg, versus vehicle p<0.001): reduced
- disability score at maximum improvement ([3]; SLV308 0.26 mg/kg po, maximum score 18): 3
- pA2 ([4]; D2,L receptor antagonism): 8.4
- efficacy on forskolin stimulated cAMP accumulation ([4]; partial agonist): 50%
- pA2 ([5]; antagonism of dopamine induction of [35S]GTPγS binding): 9.0
- pEC50 ([5]; induction of [35S]GTPγS binding): 9.2
- induction of [35S]GTPγS binding ([5]; partial agonist): 67 % that of dopamine
- pEC50 [6]: 6.3
- type of agonism at 5-HT1A [6]: full 5-HT1A receptor agonist
- effect on forskolin stimulated accumulation of cAMP (dopamine D2/3 receptor): concentration-dependently attenuated
- pA2 (dopamine D2 receptor): 8.5
- dose of optimal effect on locomotor activity and disability scores [7]: 0.26 mg/kg

Structure (SMILES): N[C@@H](Cc1ccc(O)c(O)c1)C(=O)O [L-DOPA, 3,4-dihydroxyphenylalanine]
- duration of locomotor activity ([2]; L-DOPA 7.5 and 12.5 mg/kg po): 2.5 to 4 h
- onset of locomotor activity increase ([2]; L-DOPA 7.5 and 12.5 mg/kg po): immediate increase in locomotor activity
- time of peak locomotor activity after administration ([2]; L-DOPA 7.5 and 12.5 mg/kg po): 60 to 90 min
- hyperactivity (3 times normal activity in naive marmosets) [2, 8]: produced periods of hyperactivity
- duration of reversal of disability ([3]; L-DOPA 7.5 mg/kg po): 150 min
- duration of reversal of disability ([3]; L-DOPA 12.5 mg/kg po): 180 min
- time of peak reversal of disability after administration ([3]; L-DOPA 7.5 and 12.5 mg/kg po): 90 min
- MPTP-induced akinesia and disability [3, 9]: reverse
- onset of reversal of disability [3, 9]: immediate reversal of disability
- disability score at peak reversal ([3]; L-DOPA 7.5 and 12.5 mg/kg po, maximum score 18): 2.5
